Test results from US12281299B2, “Control of nitrogen fixation in rhizobia that associate with cereals” (Massachusetts Institute of Technology, priority 2019, dated 2025).

How the values were obtained:
[1] = test system: P. protegens Pf-5; experiment: Genetic part characterization for P. protegens (promoters, RBSs, terminators, inducible systems; fluorescence reporter, flow cytometry); format: cell-based, Pseudomonas protegens; conditions: P. protegens Pf-5, pRO1600 plasmid
From the text: Construction and characterization genetic parts for P. protegens. Genetic part libraries were built on a pRO1600-ori plasmid pMR-2 using Gibson assembly (New England Biolabs, Cat # E2611). The fluorescence proteins, GFPmut3b and mRFP1 were used as reporters. The Anderson promoter library on the BioBricks Registry were utilized for the characterization of constitutive promoters (FIGS. 11A-11C). The following combinations of cognate regulators and inducible promoters were characterized. IPTG inducible LacI-Ptac, DAPG inducible PhlF-PPhl, aTc inducible TetR-PTet, 3OC6HSL inducible LuxR-PLux, arabinose inducible AraC-PBAD, cuminic acid inducible CymR-PCym, and naringenin inducible FdeR-PFde were optimized (FIGS. 15A-15C). […] RBS library for GFP was designed using the RBS library calculator at the highest-resolution mode, and the 3′ end of the 16S rRNA sequences were adjusted according to the species (3′-ACCTCCTTA-5′ for P. protegens Pf-5). Terminators for T7 RNAP were characterized by placing a terminator between two fluorescence reporters expressed from a single T7 wild-type promoter located upstream of the first fluorescence protein GFP. The expression of the two fluorescence proteins is enabled by an IPTG-inducible T7 RNAP expression system of the controller strain MR7 (FIGS. 13A-13B). All genetic parts for P. protegens Pf-5 were characterized as follows.

[2] = test system: R. sp. IRBG74; experiment: Nitrogenase assays (Rhizobia strains), acetylene reduction; format: cell-based, Rhizobium sp.; conditions: DAPG-inducible T7 RNAP driving v3.2 refactored pathway in R. sp. IRBG74
Description: Nitrogenase assays (Rhizobia strains). […] 5 μl of overnight cultures was diluted into 500 μl of UMS medium with 30 mM succinate, 10 mM sucrose, and 10 mM NH4Cl and appropriate antibiotics in 96-deepwell and incubated for 24 h at 30° C., 900 rpm in a Multitron incubator. Cultures were diluted to an OD600 of 0.4 into 2 mL of UMS medium plus 30 mM succinate and 10 mM sucrose supplemented with appropriate antibiotics, 1.43 mM serine and an inducer (if necessary) in 10 mL glass vials with PTFE-silicone septa screw caps. Headspace in the vials was replaced with 99% argon and 1% oxygen gas using a vacuum manifold. Acetylene was injected to 10% (vol/vol) into each culture vial to begin the reaction. […]
Ethylene quantification. Ethylene production was analyzed by gas chromatography using an Agilent 7890A GC system (Agilent Technologies, Inc., CA USA) equipped with a PAL headspace autosampler and flame ionization detector as follows. […] Acetylene and ethylene were detected at 3.0 min and 3.7 min after injection, respectively. Ethylene production was quantified by integrating the 3.7 min peak using Agilent GC/MSD ChemStation Software.
The bacteria were grown in appropriate media, including antibiotics, and then evaluated for nitrogenase activity using an acetylene reduction assay (see Methods and Materials Section). […]

[3] = test system: A. caulinodans ORS571; format: cell-based, Azorhizobium caulinodans; conditions: sensor controlling NifA(L94Q/D95Q)/RpoN expression in A. caulinodans
Description: Nitrogenase assays (A. caulinodans and P. stutzeri). Cultures were initiated by inoculating a single colony into 0.2 mL of TY medium supplemented with appropriate antibiotics in 96-deepwell plates and grown overnight at 37° C. and 30° C. for A. caulinodans and P. stutzeri, respectively, 900 rpm in a Multitron incubator. 5 μl of overnight cultures was diluted into 500 μl of UMS medium with 30 mM lactate and 10 mM NH4Cl and appropriate antibiotics in 96-deepwell and incubated for 24 h at 37° C. and 30° C. for A. caulinodans and P. stutzeri, respectively, 900 rpm in a Multitron incubator. Cultures were diluted to an OD600 of 0.4 into 2 mL of UMS medium plus 30 mM lactate supplemented with appropriate antibiotics and an inducer (if necessary) in 10 mL glass vials with PTFE-silicone septa screw caps. Headspace in the vials was replaced with 99% argon plus 1% oxygen gas using a vacuum manifold. Acetylene was injected to 10% (vol/vol) into each culture vial to begin the reaction. The acetylene reduction was carried out for 20 h at 30° C. with shaking at 250 rpm, followed by quenching via the addition of 0.5 mL of 4 M NaOH to each vial.
Ethylene quantification. Ethylene production was analyzed by gas chromatography using an Agilent 7890A GC system (Agilent Technologies, Inc., CA USA) equipped with a PAL headspace autosampler and flame ionization detector as follows. An aliquot of 0.5 mL headspace preincubated to 35° C. for 30 s was injected and separated for 4 min on a GS-CarbonPLOT column (0.32 mm×30 m, 3 microns; Agilent) at 60° C. and a He flow rate of 1.8 mL/min. Detection occurred in a FID heated to 300° C. with a gas flow of 35 mL/min H2 and 400 mL/min air. Acetylene and ethylene were detected at 3.0 min and 3.7 min after injection, respectively. Ethylene production was quantified by integrating the 3.7 min peak using Agilent GC/MSD ChemStation Software.

[4] = test system: R. sp. IRBG74; experiment: Genetic part characterization for Rhizobia (promoters, RBSs, terminators, inducible systems; fluorescence reporter, flow cytometry); format: cell-based, Rhizobium sp.; conditions: synthetic RBS strength in R. sp. IRBG74; plasmid pMR-40, IPTG-inducible system, 1 mM IPTG induction
From the text: Construction and characterization genetic parts for Rhizobia. Genetic part libraries were built on a pBBR1-ori plasmid pMR-1 using Gibson assembly (New England Biolabs, Cat # E2611). The fluorescence proteins, GFPmut3b and mRFP1 were used as reporters. The Anderson promoter library (Anderson, J. et al. BglBricks: A flexible standard for biological part assembly. 4, 1 (2010)) on the BioBricks Registry were utilized for the characterization of constitutive promoters (FIGS. 11A-11C). To characterize inducible promoters, a regulator protein is constitutively expressed by the PlacIq promoter, and GFP expression is driven by a cognate inducible promoter from the opposite direction, facilitating replacement of the reporter with gene of interest (e.g., T7 RNAP and nifA) and transfer of the controller unit across different plasmid backbones for diverse microbes. The following combinations of cognate regulators and inducible promoters were characterized. IPTG inducible LacI-A1lacO1, DAPG inducible PhlF-PPhl, aTc inducible TetR-PTet, 3OC6HSL inducible LuxR-PLux, salicylic acid inducible NahR-PSal, and cuminic acid inducible CymR-PCym systems were optimized for R. sp. IRBG74 (FIG. 14). Opine inducible OccR-Pocc, and nopaline inducible NocR-Pnoc systems were optimized for A. caulinodans (FIGS. 20A-20F and Tables 9 and 10). For RBS characterization, an IPTG-inducible GFP expression plasmid pMR-40 was used and GFP was expressed to the highest levels with 1 mM IPTG (FIGS. 12A-12B). RBS library for GFP was designed using the RBS library calculator at the highest-resolution mode, and the 3′ end of the 16S rRNA sequences were adjusted according to the species (3′-ACCTCCTTC-5′ for R. sp. IRBG74). Terminators for T7 RNAP were characterized by placing a terminator between two fluorescence reporters expressed from a single T7 wild-type promoter located upstream of the first fluorescence protein GFP. The expression of the two fluorescence proteins is enabled by the controller strain MR18 encoding the IPTG-inducible T7 RNAP system by 1 mM IPTG (FIGS. 13A-13B). The terminator strength (Ts) was determined by normalizing fluorescence levels of a terminator construct by a reference construct pMR-66 where a 40 bp spacer was placed between the reporters. All genetic parts for Rhizobia were characterized as follows.

Compound	Strength (GFP, au) [4]	further results
CC(=O)c1c(O)cc(O)c(C(C)=O)c1O [DAPG, 2,4-Diacetylphloroglucinol, reference compound]	–	function of inducible system [1]: functional; induction of nitrogenase activity [2]: 9 fold
N=C(N)NCCCC(NC(CCC(=O)O)C(=O)O)C(=O)O (stereo not shown) [nopaline, Nopaline]	–	dynamic range of nitrogenase activity [3]: 412 fold
CC(NC(CCCNC(=N)N)C(=O)O)C(=O)O (stereo not shown) [octopine, Octopine]	–	nitrogenase activity higher than the wild-type [3]: 40%
O=C([O-])c1ccccc1O.[Na+] [salicylic acid, Salicylic acid sodium salt]	–	dynamic range of nitrogenase activity [3]: 1000 fold
RBST-12 (DNA TAACAATTTCACACATCTAGAGCTAATCATCGCGTACTAAAAAGGCAAGTAATG; chemistry not fully specified)	1138 au	–
RBST-13 (DNA TAACAATTTCACACATCTAGAGCTAATCTTCGCGTACTAAAAAGGCAAGTAATG; chemistry not fully specified)	895.5 au	–
RBST-14 (DNA TAACAATTTCACACATCTAGAGCTAATCTTCGCGTACTAAGAAGGCAAGTAATG; chemistry not fully specified)	632.5 au	–
RBST-15 (DNA TAACAATTTCACACATCTAGAGCTAATCATCTCGTACTAAATAGGCAAGTAATG; chemistry not fully specified)	648.5 au	–
RBST-16 (DNA TAACAATTTCACACATCTAGAGCTAATCATCTCGTACTAATAAGGCAAGTAATG; chemistry not fully specified)	532 au	–
RBST-17 (DNA TAACAATTTCACACATCTAGAGCTAATCTTCTCGTACTAAAGAGGCAAGTAATG; chemistry not fully specified)	488 au	–
RBST-18 (DNA TAACAATTTCACACATCTAGAGCTAATCATCGCGTACTCAATAGGCCAGTAATG; chemistry not fully specified)	305.5 au	–
RBST-19 (DNA TAACAATTTCACACATCTAGAGCTAATCATCGCGTACTAAGTAGGCAAGTAATG; chemistry not fully specified)	242 au	–
RBST-20 (DNA TAACAATTTCACACATCTAGAGCTAATCATCTCGTACTAACGAGGCAAGTAATG; chemistry not fully specified)	248 au	–
RBST-21 (DNA TAACAATTTCACACATCTAGAGCTAATCATCGCGTACTCAGCAGGCAAGTAATG; chemistry not fully specified)	183 au	–
RBST-22 (DNA TAACAATTTCACACATCTAGAGCTAATCTTCGCGTACTAAGTAGGCAAGTAATG; chemistry not fully specified)	130 au	–
RBST-23 (DNA TAACAATTTCACACATCTAGAGCTAATCTTCGCGTACTAATTAGGCAAGTAATG; chemistry not fully specified)	84.4 au	–
RBST-24 (DNA TAACAATTTCACACATCTAGAGCTAATCTTCTCGTACTAACAAGGCAAGTAATG; chemistry not fully specified)	75.15 au	–
RBST-25 (DNA TAACAATTTCACACATCTAGAGCTAATCATCTCGTACTCAATAGGCAAGTAATG; chemistry not fully specified)	45.45 au	–
RBST-26 (DNA TAACAATTTCACACATCTAGAGCTAATCATCTCGTACTAAGCACGCAAGTAATG; chemistry not fully specified)	36 au	–
RBST-27 (DNA TAACAATTTCACACATCTAGAGCTAATCATCGCGTACTAACTACGCAAGTAATG; chemistry not fully specified)	12.2 au	–
RBST-28 (DNA TAACAATTTCACACATCTAGAGCTAATCTTCGCGTACTAAGAACGCAAGTAATG; chemistry not fully specified)	13 au	–
RBST-29 (DNA TAACAATTTCACACATCTAGAGCTAATCTTCGCGTACTAAAAACGCAAGTAATG; chemistry not fully specified)	4.6 au	–
RBST-30 (DNA TAACAATTTCACACATCTAGAGCTAATCTTCGCGTACTAACAACGCAAGTAATG; chemistry not fully specified)	2.95 au	–
RBST-31 (DNA TAACAATTTCACACATCTAGAGCTAATCTTCTCGTACTCATGACGCAAGTAATG; chemistry not fully specified)	1.45 au	–
